Active and inactive are the calls of the source. No cut-off for these calls is given here.
Columns and labels:
[1] = target: T1, Amyloid-beta precursor protein (Homo sapiens, UniProt P05067); assay: Inhibition of HFIP-induced human recombinant amyloid beta (1 to 40 residues) aggregation expressed in Escherichia coli at 25 uM measured over 24 hrs by ThT-based fluorescence spectroscopic method relative to control
[2] = target: T1, Amyloid-beta precursor protein; assay: Inhibition of HFIP-induced human recombinant amyloid beta (1 to 42 residues) aggregation expressed in Escherichia coli at 25 uM measured over 24 hrs by ThT-based fluorescence spectroscopic method relative to control
Cholinesterase [3] = target: T2, Cholinesterase (Homo sapiens, UniProt P06276)
T2 sequence (P06276 whole entry): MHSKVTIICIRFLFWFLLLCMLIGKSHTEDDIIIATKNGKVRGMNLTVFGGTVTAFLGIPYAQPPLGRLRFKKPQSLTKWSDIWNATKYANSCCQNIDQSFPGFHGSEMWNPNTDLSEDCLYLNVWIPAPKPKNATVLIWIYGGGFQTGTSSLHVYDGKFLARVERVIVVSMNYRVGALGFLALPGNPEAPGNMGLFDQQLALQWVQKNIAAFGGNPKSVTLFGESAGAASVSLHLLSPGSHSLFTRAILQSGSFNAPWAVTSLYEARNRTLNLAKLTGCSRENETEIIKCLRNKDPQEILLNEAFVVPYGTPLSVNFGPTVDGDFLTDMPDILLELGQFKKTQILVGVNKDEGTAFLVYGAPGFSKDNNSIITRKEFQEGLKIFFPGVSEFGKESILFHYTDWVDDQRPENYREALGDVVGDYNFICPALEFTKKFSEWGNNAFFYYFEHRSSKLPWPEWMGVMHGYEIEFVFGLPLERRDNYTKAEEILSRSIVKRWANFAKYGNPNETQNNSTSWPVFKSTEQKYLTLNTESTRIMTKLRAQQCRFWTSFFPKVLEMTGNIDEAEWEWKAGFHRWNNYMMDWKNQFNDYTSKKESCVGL
Description: Inhibition of human BuChE using S-butyrylthiocholine iodide as substrate preincubated for 5 mins followed by substrate addition measured for 60 to 300 secs by Ellman's method

Acetylcholinesterase = Acetylcholinesterase (Homo sapiens, UniProt P22303)
Acetylcholinesterase, sequence (P22303 whole entry): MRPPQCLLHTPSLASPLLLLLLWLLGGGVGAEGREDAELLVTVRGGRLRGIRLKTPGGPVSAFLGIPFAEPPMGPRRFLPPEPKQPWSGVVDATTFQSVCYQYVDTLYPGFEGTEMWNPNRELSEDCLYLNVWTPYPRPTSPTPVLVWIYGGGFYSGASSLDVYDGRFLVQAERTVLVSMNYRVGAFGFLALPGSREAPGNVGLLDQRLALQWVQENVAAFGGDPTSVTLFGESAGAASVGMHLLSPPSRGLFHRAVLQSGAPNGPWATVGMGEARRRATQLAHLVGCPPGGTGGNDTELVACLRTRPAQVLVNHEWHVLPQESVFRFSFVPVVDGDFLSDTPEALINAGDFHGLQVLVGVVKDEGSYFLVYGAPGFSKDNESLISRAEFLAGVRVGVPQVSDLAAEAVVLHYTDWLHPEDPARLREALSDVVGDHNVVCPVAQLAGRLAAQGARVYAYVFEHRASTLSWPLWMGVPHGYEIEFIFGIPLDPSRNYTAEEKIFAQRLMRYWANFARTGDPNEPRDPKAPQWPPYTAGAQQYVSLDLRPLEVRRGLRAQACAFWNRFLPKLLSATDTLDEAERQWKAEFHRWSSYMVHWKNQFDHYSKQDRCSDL
Description: Inhibition of human AChE using acetylthiocholine iodide as substrate preincubated for 5 mins followed by substrate addition measured for 60 to 300 secs by Ellman's method

[4] = target: T1, Amyloid-beta precursor protein
Description: Inhibition of HFIP-induced human recombinant amyloid beta (1 to 40 residues) aggregation expressed in Escherichia coli measured over 24 hrs by ThT-based fluorescence spectroscopic method

[5] = Antioxidant activity assessed as DPPH radical scavenging activity at 50 uM relative to control; assay type: functional
[6] = target: T1, Amyloid-beta precursor protein; assay: Potency index, ratio of curcumin IC50 to test compound IC50 for HFIP-induced human recombinant amyloid beta (1 to 40 residues) aggregation
[7] = target: T1, Amyloid-beta precursor protein; assay: Inhibition of HFIP-induced human recombinant amyloid beta (1 to 40 residues) aggregation expressed in Escherichia coli assessed as reduction in amyloid beta fibril load measured after 24 hrs by ThT fluorescence assay
[8] = target: T1, Amyloid-beta precursor protein; assay: Inhibition of HFIP-induced human recombinant amyloid beta (1 to 40 residues) aggregation expressed in Escherichia coli assessed as reduction in amyloid beta fibril load at 25 uM after 24 hrs by transmission electron microscopic method
Cholinesterase [9] = target: T2, Cholinesterase; assay: Potency index, ratio of donepezil IC50 to test compound IC50 for human BuChE
[10] = target: T1, Amyloid-beta precursor protein; assay: Inhibition of HFIP-induced human recombinant amyloid beta (1 to 42 residues) aggregation expressed in Escherichia coli assessed as reduction in amyloid beta fibril load measured after 24 hrs by ThT fluorescence assay
[11] = target: T1, Amyloid-beta precursor protein; assay: Inhibition of HFIP-induced human recombinant amyloid beta (1 to 42 residues) aggregation expressed in Escherichia coli assessed as reduction in amyloid beta fibril load at 25 uM after 24 hrs by transmission electron microscopic method
[12] = target: T1, Amyloid-beta precursor protein; remark: listed apart in the source
Description: Inhibition of HFIP-induced human recombinant amyloid beta (1 to 42 residues) aggregation expressed in Escherichia coli measured over 24 hrs by ThT-based fluorescence spectroscopic method

[13] = Potency index, ratio of test compound to resveratrol antioxidant activity assessed as DPPH radical scavenging activity
[14] = target: T1, Amyloid-beta precursor protein; assay: Potency index, ratio of resveratrol IC50 to test compound IC50 for HFIP-induced human recombinant amyloid beta (1 to 42 residues) aggregation
[15] = target: T1, Amyloid-beta precursor protein; assay: Potency index, ratio of curcumin IC50 to test compound IC50 for HFIP-induced human recombinant amyloid beta (1 to 42 residues) aggregation

T1 sequence (P05067 whole entry, the tested form may be a part): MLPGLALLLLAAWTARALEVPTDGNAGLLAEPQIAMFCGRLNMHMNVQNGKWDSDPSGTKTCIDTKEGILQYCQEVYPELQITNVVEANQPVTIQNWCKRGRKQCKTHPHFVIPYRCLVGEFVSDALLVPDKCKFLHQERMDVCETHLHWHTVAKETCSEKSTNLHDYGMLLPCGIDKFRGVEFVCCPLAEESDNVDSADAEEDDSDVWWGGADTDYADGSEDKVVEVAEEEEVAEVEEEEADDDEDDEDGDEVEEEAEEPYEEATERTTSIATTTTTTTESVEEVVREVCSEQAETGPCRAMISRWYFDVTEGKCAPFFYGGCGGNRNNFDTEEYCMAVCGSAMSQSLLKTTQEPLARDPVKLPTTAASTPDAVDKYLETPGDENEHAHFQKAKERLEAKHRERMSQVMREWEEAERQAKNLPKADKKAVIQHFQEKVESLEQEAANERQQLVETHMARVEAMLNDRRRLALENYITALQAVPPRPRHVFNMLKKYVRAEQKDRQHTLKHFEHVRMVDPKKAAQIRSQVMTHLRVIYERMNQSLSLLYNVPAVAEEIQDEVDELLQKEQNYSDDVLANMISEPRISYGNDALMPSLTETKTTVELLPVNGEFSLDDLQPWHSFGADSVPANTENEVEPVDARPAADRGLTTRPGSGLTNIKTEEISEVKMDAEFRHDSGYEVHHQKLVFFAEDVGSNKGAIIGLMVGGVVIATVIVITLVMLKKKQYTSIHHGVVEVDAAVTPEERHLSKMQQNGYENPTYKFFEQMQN

SMILES	inhibition [1]	inhibition [2]	IC50 (Cholinesterase [3])	IC50 (Acetylcholinesterase)	IC50 [4]	other results
COc1ccc(CCNc2nc(NC3CC3)nc3ccccc23)cc1OC	> 50%	25%	5.6 µM	7.2 µM	4.9 µM	–
COc1ccc(CNc2nc(N=[N+]=[N-])nc3ccccc23)cc1OC	> 50%	< 10%	–	–	7.2 µM	–
CCNc1nc(NCCc2ccc(OC)c(OC)c2)c2ccccc2n1	> 50%	41%	14 µM	7.5 µM	2.9 µM	–
CNc1nc(NCCc2ccccc2)c2ccccc2n1	> 50%	40%	5 µM	8.7 µM	2 µM	–
Clc1nc(NCc2ccccc2)c2ccccc2n1	> 50%	22%	–	–	16.7 µM	–
CC(=O)Nc1nc(NCc2ccccc2)c2ccccc2n1	> 50%	31%	> 50 µM	7.5 µM	1.9 µM	–
COc1ccc(CCNc2nc(O)nc3ccccc23)cc1OC	> 50%	32%	–	–	10.4 µM	Activity [5]: 33.9%
COc1ccc(CCNc2nc(CC(N)=O)nc3ccccc23)cc1OC	–	–	> 50 µM	12.5 µM	–	–
COc1ccc(CNc2nc(NC(C)C)nc3ccccc23)cc1OC	–	–	29.8 µM	6.8 µM	–	–
COc1ccc(CNc2nc(NC3CCN(Cc4ccccc4)CC3)nc3ccccc23)cc1OC	> 50%	27%	–	–	2.3 µM	Ratio IC50 [6]: 1.3
COc1ccc(CCNc2ncnc3ccccc23)cc1OC	> 50%	36%	–	–	12 µM	–
COc1ccc(CNc2nc(NC(C)=O)nc3ccccc23)cc1OC	> 50%	< 10%	> 50 µM	8.5 µM	3.1 µM	–
CCNc1nc(NCc2ccc(OC)c(OC)c2)c2ccccc2n1	–	–	25 µM	6.3 µM	–	–
CCCNc1nc(NCCc2ccc(OC)c(OC)c2)c2ccccc2n1	> 50%	14%	24.9 µM	7 µM	4.3 µM	–
NC(=O)Nc1nc(NCCc2ccccc2)c2ccccc2n1	> 50%	46%	> 50 µM	7.9 µM	1 µM	inhibition [7]: Dose-dependent effect; inhibition [8]: Active
CC(=O)Nc1nc(NCCc2ccccc2)c2ccccc2n1	–	–	> 50 µM	7 µM	–	–
Nc1nc(NCCc2ccccc2)c2ccccc2n1	> 50%	37%	–	–	–	–
CC(C)Nc1nc(NCCc2ccccc2)c2ccccc2n1	> 50%	inactive	1.6 µM	7.2 µM	3.8 µM	Ratio IC50 (Cholinesterase [9]): 2.3
Oc1ccc(/C=C/c2cc(O)cc(O)c2)cc1	–	–	–	–	–	Activity [5]: 41.9%
c1ccc(CNc2nc(NC3CC3)nc3ccccc23)cc1	> 50%	31%	22 µM	6.6 µM	5.7 µM	–
COc1ccc(CCNc2nc(NC(C)C)nc3ccccc23)cc1OC	–	–	7.8 µM	7.6 µM	–	–
CNc1nc(NCc2ccc(OC)c(OC)c2)c2ccccc2n1	–	–	30.5 µM	7.3 µM	–	–
CCNc1nc(NCc2ccccc2)c2ccccc2n1	> 50%	24%	15.2 µM	7.5 µM	7 µM	–
COc1ccc(CCNc2nc(Cl)nc3ccccc23)cc1OC	> 50%	–	–	–	8.2 µM	inhibition [10]: Dose-dependent effect; inhibition [11]: Active; IC50 [12]: 13 µM
CNc1nc(NCc2ccccc2)c2ccccc2n1	–	–	18.8 µM	8 µM	–	–
Cc1c(C)c2c(c(C)c1O)CCC(C)(C(=O)O)O2 (configuration not stated)	–	–	–	–	–	Activity [5]: 99.6%

SMILES	inhibition [1]	inhibition [2]	IC50 (Cholinesterase [3])	IC50 (Acetylcholinesterase)	IC50 [4]	other results
c1ccc(CCNc2nc(NC3CC3)nc3ccccc23)cc1	> 50%	22%	11.4 µM	8.6 µM	0.79 µM	Ratio IC50 [6]: 4.1; inhibition [7]: Dose-dependent effect; inhibition [8]: Active
CCNc1nc(NCCc2ccccc2)c2ccccc2n1	> 50%	47%	3.2 µM	7.6 µM	1.4 µM	inhibition [7]: Dose-dependent effect; inhibition [8]: Active
Nc1nc(NCc2ccccc2)c2ccccc2n1	> 50%	< 10%	–	–	–	–
COc1ccc(CCNc2nc(NC(N)=O)nc3ccccc23)cc1OC	> 50%	33%	> 50 µM	8.7 µM	14.4 µM	–
CCCNc1nc(NCc2ccc(OC)c(OC)c2)c2ccccc2n1	> 50%	inactive	30.4 µM	5.6 µM	1.7 µM	–
Oc1nc(NCCc2ccccc2)c2ccccc2n1	> 50%	inactive	–	–	11.2 µM	Activity [5]: 51.5%
CNc1nc(NCCc2ccc(OC)c(OC)c2)c2ccccc2n1	> 50%	23.1%	4.5 µM	8.5 µM	6.6 µM	inhibition [10]: Dose-dependent effect; inhibition [11]: Active
Clc1nc(NCCc2ccccc2)c2ccccc2n1	> 50%	36%	–	–	5 µM	–
COc1ccc(CCNc2nc(NC(C)=O)nc3ccccc23)cc1OC	–	–	> 50 µM	7.4 µM	–	–
COc1ccc(CCNc2nc(N)nc3ccccc23)cc1OC	> 50%	45%	–	–	2.7 µM	–
Nc1nc(NCCc2ccccc2)nc2ccccc12	> 50%	50%	–	–	–	Ratio IC50 (Cholinesterase [9]): 1.5; inhibition [10]: Dose-dependent effect; inhibition [11]: Active
CCCNc1nc(NCc2ccccc2)c2ccccc2n1	> 50%	26%	14.4 µM	7.8 µM	5 µM	–
COc1ccc(CNc2nc(NC(N)=O)nc3ccccc23)cc1OC	> 50%	40%	> 50 µM	8.6 µM	8.3 µM	–
COc1ccc(CNc2nc(CC(N)=O)nc3ccccc23)cc1OC	–	–	> 50 µM	7.4 µM	–	–
CCCNc1nc(NCCc2ccccc2)c2ccccc2n1	> 50%	33%	5 µM	7.2 µM	4.4 µM	–
COc1ccc(CNc2nc(O)nc3ccccc23)cc1OC	> 50%	< 10%	–	–	7.8 µM	Activity [5]: 63.4%; Ratio [13]: 1.5
COc1ccc(CNc2nc(N)nc3ccccc23)cc1OC	> 50%	34%	–	–	8.4 µM	–
NC(=O)Cc1nc(NCCc2ccccc2)c2ccccc2n1	–	–	3.5 µM	7.3 µM	–	–
Oc1nc(NCc2ccccc2)c2ccccc2n1	> 50%	24%	–	–	0.27 µM	Ratio IC50 [14]: 4; Ratio IC50 [15]: 12; inhibition [7]: Dose-dependent effect; inhibition [8]: Active; Activity [5]: 47%
c1ccc(CCNc2ncnc3ccccc23)cc1	> 50%	32%	–	–	11.9 µM	–
[N-]=[N+]=Nc1nc(NCc2ccccc2)c2ccccc2n1	> 50%	37%	–	–	2.6 µM	–
Nc1nc(NCc2ccccc2)nc2ccccc12	> 50%	–	–	–	–	Ratio IC50 [6]: 1.2 to 1.4; Ratio IC50 [14]: 1.8; inhibition [10]: Dose-dependent effect; inhibition [11]: Active
CC(C)Nc1nc(NCc2ccccc2)c2ccccc2n1	> 50%	13%	11.7 µM	6.4 µM	4.4 µM	–
NC(=O)Cc1nc(NCc2ccccc2)c2ccccc2n1	–	–	> 50 µM	7.2 µM	–	–
COc1ccc(CNc2nc(NC3CC3)nc3ccccc23)cc1OC	> 50%	20%	29.8 µM	7.2 µM	8.3 µM	–
NC(=O)Nc1nc(NCc2ccccc2)c2ccccc2n1	> 50%	48%	> 50 µM	8.3 µM	13.3 µM	–

Source: ChEMBL document CHEMBL4002588, “2,4-Disubstituted quinazolines as amyloid-β aggregation inhibitors with dual cholinesterase inhibition and antioxidant properties: Development and structure-activity relationship (SAR) studies” (Eur J Med Chem, 2017)
